Series [1] concerns schizophrenia patients. The following applies: in vivo.
Series [2] deals with schizophrenia patients. In words: Observer-based EPS severity ratings (SAEPS, AIMS, BARS). It is filed as in vivo, human.
For a further series, the target named is dopamine receptor (Homo sapiens, UniProt P14416). The following applies: PET in schizophrenic patients before and after treatment; cited from earlier work.
Series [3] has as its system schizophrenia patients. In words: Handwriting velocity scaling (VS) in patients grouped by antipsychotic medication. It is filed as in vivo, human. The following applies: lower VS scores indicate more parkinsonian bradykinesia; loops of 1, 2, 4 cm.
Text: Lower VS scores indicate more parkinsonian bradykinesia.
This measure expresses the extent to which movements are sped up when size is increased.
One simple and direct measure is the increase of a velocity measure in one stroke (e.g., in cm/s) divided by the increase of size (e.g., in cm). This resulting velocity scaling has a unit of size/duration/size or 1/duration.
Series [4] concerns schizophrenia patients. Particulars: for average normalized jerk (ANJ) score compared between medication groups / average normalized jerk (ANJ) score compared with healthy subjects: handwriting dysfluency; for average normalized jerk (ANJ) score compared between medication groups: marker of TD/EPS, 9 handwriting tasks, dominant hand, 1, 2, 4 cm, versus other medications; for average normalized jerk (ANJ) score compared with healthy subjects: medication group versus normal healthy subjects.

Molecules are shown by their SMILES. Entries after “also recorded” stand apart in the source; their conditions may differ.

Sequence of dopamine receptor (P14416 whole entry): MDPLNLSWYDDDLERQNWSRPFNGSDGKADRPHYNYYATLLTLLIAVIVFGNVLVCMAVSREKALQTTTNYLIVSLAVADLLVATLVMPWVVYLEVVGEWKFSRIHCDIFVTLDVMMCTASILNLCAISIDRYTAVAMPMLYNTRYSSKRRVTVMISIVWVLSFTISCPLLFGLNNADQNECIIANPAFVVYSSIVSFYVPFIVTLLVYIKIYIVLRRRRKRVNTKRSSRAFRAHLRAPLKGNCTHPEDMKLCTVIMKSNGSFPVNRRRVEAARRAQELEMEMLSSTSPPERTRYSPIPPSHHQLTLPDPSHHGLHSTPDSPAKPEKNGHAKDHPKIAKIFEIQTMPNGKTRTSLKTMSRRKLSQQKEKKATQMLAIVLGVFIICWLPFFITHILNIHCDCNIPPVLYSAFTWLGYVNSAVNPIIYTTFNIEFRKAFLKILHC

With `Cc1nc2n(c(=O)c1CCN1CCC(c3noc4cc(F)ccc34)CC1)CCCC2` [risperidone], in the series on schizophrenia patients [1], the “correlation (r) of peak vertical velocity with daily dose” value is −0.45 and the “motor impairment quantified by handwriting movements” value is reported as “significant motor impairment”. For the same molecule, the “observer-based EPS assessments: medicated versus unmedicated groups and relationship with dose” value in the series with schizophrenia patients [2] (conventional ratings) was “not able to detect differences between risperidone-medicated and unmedicated groups or a relationship with risperidone dose”. In addition, the “correlation between observer-based severity ratings and dose” value with schizophrenia patients [2] (p>0.05) is recorded as “no significant correlations”. In addition, the “relationship between reduction in handwriting size (area) and dopamine receptor occupancy” value on dopamine receptor was “significant relationship between reduction in handwriting size (expressed by area) and dopamine receptor occupancy”.

As to `O=C1CCc2ccc(OCCCCN3CCN(c4cccc(Cl)c4Cl)CC3)cc2N1` [aripiprazole], the “velocity scaling (VS) score (slope of peak vertical velocity versus vertical size) compared between medication groups” value in the series on schizophrenia patients [3] is reported as “lower VS scores than those on olanzapine or quetiapine; also recorded: lower VS scores than those on other medications”. Besides, the “effect of antipsychotic type on average normalized jerk and peak velocity” value in the series on schizophrenia patients [4] (collapsed across all 14 task conditions) was “doing worse than others”. Besides, in the series on schizophrenia patients [4], the “average normalized jerk (ANJ) score compared between medication groups” value is given as “significantly higher ANJ” and the “average normalized jerk (ANJ) score compared with healthy subjects” value is “significantly higher ANJ scores than healthy subjects”.

As for `OCCOCCN1CCN(C2=Nc3ccccc3Sc3ccccc32)CC1` [quetiapine], in the series with schizophrenia patients [4], the “average normalized jerk (ANJ) score compared between medication groups” value is “significantly less abnormality than those treated with aripiprazole or risperidone” and the “average normalized jerk (ANJ) score compared with healthy subjects” value is recorded as “did not differ from normal healthy subjects”.

The values are drawn from patent publication US20100152622A1, “MOTOR PHENOMENON MEASUREMENT” (priority 2007, published 2010).
